Measured values: PMC4444998 (Journal of Natural Products, 2015)

Columns and labels:
Assay type in all cases: biochemical
[1] = system: Bovine trypsin; assay: Trypsin inhibition assay (Bz-Arg-AMC, fluorimetry); settings: for inhibition of trypsin protease activity: cyclotides kalata B1 or psysol 2 at 25 µM and 75 µM, respectively, triplicate
Description: (§1) Inhibitory activity was performed in triplicate in 96-well microtiter plates. Bovine trypsin (10 μL of a 10 ng/μL solution; Roche, Basel, Switzerland) or bovine α-chymotrypsin (10 μL of a 2.5 ng/μL solution; Sigma-Aldrich) was preincubated for 15 min at 37 °C with buffer (125 μL of a 20 mM Tris-HCl solution, pH 8.0) and with 3 μL of the cyclotide solution or ddH2O as negative control. After preincubation, trypsin substrate (Bz-Arg-AMC-HCl, 10 μL of a 3 mM solution prepared in 40% 1,4-dioxane; Bachem, Bubendorf, Switzerland) or chymotrypsin substrate (Ala-Ala-Phe-AMC, 10 μL of a 3 mM solution prepared in 40% 1,4-dioxane; Sigma-Aldrich), respectively, was added, and the reaction was incubated while shaking (90 rpm) for 1 h at 37 °C. The reaction was stopped with sodium acetate (150 μL, 1 M, pH 4), and the formation of AMC was measured by fluorimetry. The excitation and emission wavelengths were 360 ± 40 and 485 ± 20 nm, respectively. Phenylmethane-sulfonylfluoride (PMSF; 3 μL of a 5 mM solution in DMSO) was used as a positive control of inhibition; additional controls with DMSO solution only were also performed. Data were calculated as percentage of inhibition and are presented as mean ± STDEV (of three replicates).

[2] = system: bovine α-chymotrypsin; assay: Chymotrypsin inhibition assay (Ala-Ala-Phe-AMC, fluorimetry); settings: for inhibition of chymotrypsin activity: cyclotides at 25 µM and 75 µM, triplicate
Description: as §1

[3] = molecular target: T1, human prolyl oligopeptidase (POP) (Homo sapiens, UniProt P48147); assay: Prolyl oligopeptidase inhibition assay (Z-Gly-Pro-AMC, fluorimetry)
T1 construct: made in house
T1 sequence (P48147 1-710): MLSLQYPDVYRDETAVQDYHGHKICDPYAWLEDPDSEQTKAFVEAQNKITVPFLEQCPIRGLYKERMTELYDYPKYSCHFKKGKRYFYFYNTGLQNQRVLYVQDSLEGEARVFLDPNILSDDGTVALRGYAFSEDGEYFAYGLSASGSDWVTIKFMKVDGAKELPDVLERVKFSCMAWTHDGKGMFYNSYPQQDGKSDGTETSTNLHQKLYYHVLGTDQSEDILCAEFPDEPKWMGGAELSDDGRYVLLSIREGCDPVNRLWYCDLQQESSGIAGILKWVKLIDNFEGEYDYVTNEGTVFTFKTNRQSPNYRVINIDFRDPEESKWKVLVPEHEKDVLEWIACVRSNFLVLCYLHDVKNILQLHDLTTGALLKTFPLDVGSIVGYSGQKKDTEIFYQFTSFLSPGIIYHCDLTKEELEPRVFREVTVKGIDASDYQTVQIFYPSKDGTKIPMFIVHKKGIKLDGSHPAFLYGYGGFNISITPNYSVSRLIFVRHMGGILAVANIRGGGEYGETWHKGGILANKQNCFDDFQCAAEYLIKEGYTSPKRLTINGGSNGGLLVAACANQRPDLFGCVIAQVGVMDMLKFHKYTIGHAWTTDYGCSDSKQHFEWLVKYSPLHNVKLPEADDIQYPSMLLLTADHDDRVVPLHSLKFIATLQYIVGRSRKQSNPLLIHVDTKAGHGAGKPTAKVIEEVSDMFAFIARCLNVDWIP

SMILES	inhibition of trypsin activity (positive control) ([1]; 100 µM)	inhibition of chymotrypsin activity (positive control) ([2]; 100 µM)	selectivity toward inhibition of POP over trypsin and chymotrypsin ([3]; POP IC50 compared with no inhibition of trypsin/chymotrypsin at 25 and 75 μM)	inhibition of trypsin protease activity [1]	inhibition of chymotrypsin activity [2]	IC50 ([3]; POP enzyme inhibition potency IC50, synthetic cyclotide, mean of three replicates) [µM]
O=S(=O)(F)Cc1ccccc1 [PMSF, Phenylmethane-sulfonylfluoride]	able to inhibit	completel y blocked				
CC(C)C[C@@H]1NC(=O)CNC(=O)[C@H](CC(N)=O)NC(=O)[C@H](CCCNC(=N)N)NC(=O)[C@H]([C@@H](C)O)NC(=O)[C@@H]2CSSC[C@@H]3NC(=O)[C@H]([C@@H](C)O)NC(=O)CNC(=O)CNC(=O)[C@H](C(C)C)NC(=O)[C@@H]4CSSC[C@H](NC(=O)[C@H]([C@@H](C)O)NC(=O)[C@H](CSSC[C@H](NC(=O)[C@H](C(C)C)NC(=O)[C@@H]5CCCN5C1=O)C(=O)NCC(=O)N[C@@H](CCC(=O)O)C(=O)N[C@@H]([C@@H](C)O)C(=O)N4)NC(=O)CNC(=O)[C@@H]1CCCN1C(=O)[C@H]([C@@H](C)O)NC(=O)[C@H](CC(N)=O)NC3=O)C(=O)N[C@@H](CO)C(=O)N[C@@H](Cc1c[nH]c3ccccc13)C(=O)N1CCC[C@H]1C(=O)N[C@@H](C(C)C)C(=O)N2 [kalata B1]			at least an order of magnitude more selective	not inhibited	had no effect	
CC[C@H](C)[C@@H]1NC(=O)[C@@H]2CCCN2C(=O)[C@H](CC(C)C)NC(=O)CNC(=O)[C@H](CC(N)=O)NC(=O)[C@H](CCCNC(=N)N)NC(=O)[C@H]([C@@H](C)O)NC(=O)[C@@H]2CSSC[C@@H]3NC(=O)[C@H]([C@@H](C)O)NC(=O)CNC(=O)CNC(=O)[C@H](C(C)C)NC(=O)[C@@H]4CSSC[C@H](NC(=O)[C@H]([C@@H](C)O)NC(=O)[C@H](CSSC[C@H](NC1=O)C(=O)NCC(=O)N[C@@H](CCC(=O)O)C(=O)N[C@@H](CO)C(=O)N4)NC(=O)CNC(=O)[C@@H]1CCCN1C(=O)[C@H]([C@@H](C)O)NC(=O)[C@H](CC(N)=O)NC3=O)C(=O)N[C@@H]([C@@H](C)O)C(=O)N[C@@H](Cc1c[nH]c3ccccc13)C(=O)N1CCC[C@H]1C(=O)N[C@@H](C(C)C)C(=O)N2 [psysol 2 (1), psysol 2]				not inhibited	had no effect	27.8
